According to patent US6667341B2, “Delta dicarbonyl compounds and methods for using the same” (Beacon Laboratories, Inc., priority 2000, dated 2003):

tested on: MCF-7 breast cancer cells; test: Anti-proliferation assay, MCF-7; type: cell-based; settings: Homo sapiens, MCF7; value marked *: obtained from MCF-7 cell line; read-out: PC-3 or MCF-7* IC50
Method: (§1) Compounds prepared according to Examples 1-7 were tested for anti-proliferation against PC-3 prostate or MCF-7 breast cancer cells. The specific compounds tested include N-methyl-2-(2-methoxyethoxy)acetamidomethyl butyrate; N-methylbutyramidomethyl cinnamate; N-methylcinnamamidomethyl butyrate; cinnamoyloxymethyl thiobutyrate; butyroyloxymethyl thiocinnamate; bis(thiobutyl)methane; 3-oxohexyl cinnamate; and propionoyloxymethyl propionate. Butyric acid and trichostatin, a potent HDAC inhibitor, were used as reference compounds. Both compounds were purchased from Sigma-Aldrich, Milwaukee, Wis.
Cell culture plates were then heated to 90° C. to liquefy the agarose, and cells were harvested onto glass fiber filters, which were then placed into counting vials containing liquid scintillation fluid. The radioactivity trapped on the filters was counted with a Beckman scintillation counter. The fraction of surviving cells was determined by comparing ^3H-TdR incorporation in treated (experimental points) and untreated (negative control) wells. All drug concentrations are presented as μM, allowing for normalization of drug response curves and direct comparison of the effects of the drugs. […] IC50 values were determined using the approximated sigmoidal curves and expressed as μM. […]

Row | Compound | IC50 [µM]
1 | CCC(=O)OCOC(=S)CC [propionoyloxymethyl thiopropionate, Propionoyloxymethyl Thiopropionate] | 50

tested on: PC-3 prostate cancer cells; test: EDR anti-proliferation assay (3H-thymidine incorporation, soft agar), PC-3; type: cell-based; settings: PC-3 cell line; five days incubation; 3H-TdR incorporation; read-out: PC-3 or MCF-7* IC50
Method: as §1
The PC-3 cell line was maintained in RPMI supplemented with 10% fetal calf serum and antibiotics. The EDR assay was performed as described by Kern and Weisenthal in “Highly Specific Prediction of Antineoplastic Drug Resistance With An In Vitro Assay Using Suprapharmacologic Drug Exposures,” J. Nat. Cancer Inst., 82:582-588 (1990); and Fruehauf and Bosanquet, “In vitro Determination of Drug Response: A Discussion of Clinical Applications,” PPO Updates 7(12):1-16 (1993). Cells were suspended in 0.12% soft agar in complete medium and plated (2,000 cells per well, as determined by preliminary experiments) in different drug concentrations onto a 0.4% agarose underlayer in 24-well plates. Plating cells on agarose underlayers supports the proliferation only of the transformed cells, ensuring that the growth signal stems from the malignant component of the tumor.
All compounds were dissolved in DMSO to 200× stock solutions. Stock solutions were diluted to 20× working solutions using the tissue culture medium, serially diluted and added to the 24-well plates. The concentration range was 0.001 μM to 0.3 μM for trichostatin and 10 μM-1,000 μM for the other compounds. No significant changes in pH of the culture medium were observed under the above conditions. Diluent control wells contained PC3 cells treated with DMSO, at the dilutions used for appropriate drug treatment. All experimental points were represented by two separate wells (duplicates). Positive controls were determined using at least two wells treated with an extremely high dose of cisplatin, an anti-cancer agent. Four wells containing tumor cells that were not treated with drugs served as negative controls in each experiment.
Cells were incubated with drugs under standard culture conditions for five days. Cultures were pulsed with tritiated thymidine (^3H-TdR, New Life Science Products, Boston, Mass.) at 5 μCi per well for the last 48 hours of the culture period.
Cell culture plates were then heated to 90° C. to liquefy the agarose, and cells were harvested onto glass fiber filters, which were then placed into counting vials containing liquid scintillation fluid. The radioactivity trapped on the filters was counted with a Beckman scintillation counter. The fraction of surviving cells was determined by comparing ^3H-TdR incorporation in treated (experimental points) and untreated (negative control) wells. All drug concentrations are presented as μM, allowing for normalization of drug response curves and direct comparison of the effects of the drugs. Microsoft Excel was used to organize the raw data on EDR experiments, and the SigmaPlot program was utilized to generate drug response curves. All drug response curves were as approximated as sigmoidal equations (characteristic for typical drug response curves) to fit the data. IC50 values were determined using the approximated sigmoidal curves and expressed as μM. Table 12 provides the PC-3 or MCF-7 IC50 data for each of the compounds tested.

Row | Compound | IC50 [µM]
2 | CCCC(=O)O [butyric acid, reference compound] | > 2000
3 | CCCC(=O)CCOC(=O)C=Cc1ccccc1 [3-oxohexyl cinnamate, 3-Oxohexyl Cinnamate] | 40
4 | CCCC(=O)OCN(C)C(=O)C=Cc1ccccc1 [N-methylcinnamamidomethyl butyrate, N-Methylcinnamamidomethyl Butyrate] | 20
5 | CCCC(=O)OCOC(=S)C=Cc1ccccc1 [butyroyloxymethyl thiocinnamate, Butyroyloxymethyl Thiocinnamate] | 30
6 | CCCC(=S)OCOC(=O)C=Cc1ccccc1 [cinnamoyloxymethyl thio-butyrate, Cinnamoyloxymethyl Thiobutyrate] | 30
7 | CCCC(=O)SCSC(=O)CCC | 40
8 | CCCC(=O)OCN(C)C(=O)COCCOC [N-Methyl-2-(2-methoxyethoxy)acetamidomethyl Butyrate] | 36
9 | CCCC(=O)N(C)COC(=O)C=Cc1ccccc1 [N-methylbutyramidomethyl cinnamate, N-Methylbutyramidomethyl Cinnamate] | 100
10 | CC(/C=C/C(=O)NO)=C\[C@@H](C)C(=O)c1ccc(N(C)C)cc1 [trichostatin, reference compound] | 0.005
